What was measured:
[1] = target: T1, human TLR7 (Homo sapiens, UniProt Q9NYK1); assay: TLR7 inhibition reporter assay (HEK-Blue cells, SEAP reporter, gardiquimod stimulation); format: cell-based; conditions: HEK-Blue cells overexpressing human TLR7, gardiquimod 7.5 μM
T1 construct: host or cells: HEK-Blue cells
T1 sequence (Q9NYK1 27-1049): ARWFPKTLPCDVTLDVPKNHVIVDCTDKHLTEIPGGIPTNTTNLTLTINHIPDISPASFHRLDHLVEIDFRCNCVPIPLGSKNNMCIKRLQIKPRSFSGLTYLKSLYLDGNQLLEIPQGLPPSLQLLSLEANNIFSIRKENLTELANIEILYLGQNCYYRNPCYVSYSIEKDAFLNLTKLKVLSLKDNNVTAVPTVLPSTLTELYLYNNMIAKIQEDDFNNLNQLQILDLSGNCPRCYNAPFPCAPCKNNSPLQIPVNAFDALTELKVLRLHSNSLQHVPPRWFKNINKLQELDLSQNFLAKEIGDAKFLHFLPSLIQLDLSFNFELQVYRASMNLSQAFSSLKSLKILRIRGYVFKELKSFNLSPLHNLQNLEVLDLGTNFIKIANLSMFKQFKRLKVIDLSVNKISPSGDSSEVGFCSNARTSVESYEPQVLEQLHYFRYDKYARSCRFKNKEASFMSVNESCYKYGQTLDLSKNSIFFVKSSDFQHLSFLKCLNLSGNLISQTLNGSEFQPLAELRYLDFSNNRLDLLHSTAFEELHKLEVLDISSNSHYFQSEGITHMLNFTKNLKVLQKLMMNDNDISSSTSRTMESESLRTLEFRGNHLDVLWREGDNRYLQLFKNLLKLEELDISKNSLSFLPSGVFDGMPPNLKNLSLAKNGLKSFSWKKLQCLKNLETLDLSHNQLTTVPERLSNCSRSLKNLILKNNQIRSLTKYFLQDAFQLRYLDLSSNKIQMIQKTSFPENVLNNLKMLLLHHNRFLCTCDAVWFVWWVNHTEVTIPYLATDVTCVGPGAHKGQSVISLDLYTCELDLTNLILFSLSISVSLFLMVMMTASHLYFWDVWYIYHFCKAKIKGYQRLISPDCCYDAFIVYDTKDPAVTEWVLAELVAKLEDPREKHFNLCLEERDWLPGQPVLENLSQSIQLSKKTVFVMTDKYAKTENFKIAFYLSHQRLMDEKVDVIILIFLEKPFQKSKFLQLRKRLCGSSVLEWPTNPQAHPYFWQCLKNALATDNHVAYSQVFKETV
How it was run: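 Cells (15000/well for TLR7, 20,000 for TLR8) were treated with compounds over 0.05 nM-50 μM final. After 22 h at 37° C, 5% CO2, SEAP was measured with HEK-Blue Detection reagent; percent inhibition was taken as reduction of agonist-plus-DMSO signal relative to a known inhibitor.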

[2] = system: TLR9; assay: In vivo mouse TLR9 PD model (CpG-ODN challenge, plasma IL-6); conditions: oral
Experimental: (§1) In Vivo Mouse TLR7 and TLR9 PD Model:
(§2) Adult male C57BL/6 mice were used for the experiments. Mice (7 to 10 per group) were randomized into different treatment groups based on body weight. Mice from the respective treatment groups were administered orally with vehicle or test compound. Thirty min after the oral administration of vehicle or test compound, mice were challenged with intraperitoneal injection of gardiquimod for TLR7 PD model and CpG-ODN for TLR9 PD model. Ninety minutes after gardiquimod injection and 120 minutes after CpG-ODN injection, mice were bled under isoflurane anaesthesia and plasma IL-6 level was estimated by using commercially available ELISA kit (BD Biosciences). At the end of experiment, mean cytokine data was plotted and one way ANOVA with Dunnett's test was performed to calculate the significance of test compound treated group vs. vehicle control group. Percent inhibition of cytokine induction was calculated for test compound treated group vs vehicle control group.

[3] = system: TLR7; assay: In vivo mouse TLR7 PD model (gardiquimod challenge, plasma IL-6); conditions: oral
Experimental: as §1, §2

[4] = system: MRL/lpr model of Systemic Lupus Erythematosus; assay: MRL/lpr model of systemic lupus erythematosus (SLE); format: in vivo, mouse; conditions: MRL/lpr mice, oral once daily 8 weeks
Experimental: MRL/Lpr Model of Systemic Lupus Erythematosus (SLE) Male MRL/lpr mice of 12-14 weeks age were screened and randomized based on the titers of anti-dsDNA antibodies and urinary NGAL (Neutrophil Gelatinase Associated Lipocalin). Mice were treated orally, once daily for 8 weeks with vehicle or test compound. The effect of test compound on disease severity was assessed by measuring end points including proteinuria, urinary-NGAL, anti-dsDNA Ab titer, and lymphadenopathy. These end points were assessed before the start of treatment and after 4 and 8 weeks of treatment. At the end of experiment, all mice were euthanized by CO2 asphyxiation and kidney samples were subjected for histology. At the end of experiment, one way ANOVA with Dunnett's test was performed to calculate the significance of test compound treated group vs. vehicle control group. Percent reduction in disease severity was calculated for each parameter, for test compound treated group vs vehicle control group. A cumulative disease score and the percent reduction in cumulative disease score was calculated by considering the average inhibition in all parameters except lymphadenopathy to reflect the impact on the overall severity of disease progression.

- IC50 [1]: 12 nM
SMILES: COc1ccc(-c2[nH]c3ccc(C4CCN(C(=O)CN(C)C)CC4)cc3c2C(C)C)cc1OC [Example 209, 1-(4-(2-(3,4-dimethoxyphenyl)-3-isopropyl-1H-indol-5-yl)piperidin-1-yl)-2-(dimethylamino)ethan-1-one]
- % inhibition of IL6 ([2]; dose 1 mg/kg): 29%
- % inhibition of IL6 ([2]; dose 10 mg/kg): 37%
- % inhibition of IL6 ([2]; dose 30 mg/kg): 37%
- % inhibition of IL6 ([2]; dose 100 mg/kg): 51%
- % inhibition of IL6 ([3]; dose 0.001 mg/kg): 11%
- % inhibition of IL6 ([3]; dose 0.01 mg/kg): 21%
- % inhibition of IL6 ([3]; dose 0.1 mg/kg): 61%
- % inhibition of IL6 ([3]; dose 1 mg/kg): 86%
- % inhibition Anti-dsDNA antibody titer ([4]; dose 1 mg/kg): 44%
- % inhibition Cumulative score ([4]; dose 1 mg/kg): 42%
- % inhibition IL-10 ([4]; dose 1 mg/kg): 10%
- % inhibition IL-12p40 ([4]; dose 1 mg/kg): 13%
- % inhibition Lymphadenopathy ([4]; dose 1 mg/kg): 35%
- % inhibition Proteinuria ([4]; dose 1 mg/kg): 46%
- % inhibition Urinary NGAL ([4]; dose 1 mg/kg): 36%
- % inhibition Anti-dsDNA antibody titer ([4]; dose 2 mg/kg): 57%
- % inhibition Cumulative score ([4]; dose 2 mg/kg): 55%
- % inhibition IL-10 ([4]; dose 2 mg/kg): 22%
- % inhibition IL-12p40 ([4]; dose 2 mg/kg): 24%
- % inhibition Lymphadenopathy ([4]; dose 2 mg/kg): 38%
- % inhibition Proteinuria ([4]; dose 2 mg/kg): 57%
- % inhibition Urinary NGAL ([4]; dose 2 mg/kg): 52%
- % inhibition Anti-dsDNA antibody titer ([4]; dose 5 mg/kg): 67%
- % inhibition Cumulative score ([4]; dose 5 mg/kg): 61%
- % inhibition IL-10 ([4]; dose 5 mg/kg): 36%
- % inhibition IL-12p40 ([4]; dose 5 mg/kg): 18%
- % inhibition Lymphadenopathy ([4]; dose 5 mg/kg): 50%
- % inhibition Proteinuria ([4]; dose 5 mg/kg): 61%
- % inhibition Urinary NGAL ([4]; dose 5 mg/kg): 54%
- % inhibition Anti-dsDNA antibody titer ([4]; dose 7.5 mg/kg): 70%
- % inhibition Cumulative score ([4]; dose 7.5 mg/kg): 67%
- % inhibition IL-10 ([4]; dose 7.5 mg/kg): 36%
- % inhibition IL-12p40 ([4]; dose 7.5 mg/kg): 27%
- % inhibition Lymphadenopathy ([4]; dose 7.5 mg/kg): 58%
- % inhibition Proteinuria ([4]; dose 7.5 mg/kg): 68%
- % inhibition Urinary NGAL ([4]; dose 7.5 mg/kg): 62%
